“And” between values parts separate entries of the source, which are not always exact repeats. Equal entries are not always repeated. Structures can show the parent of a compound that is named as a salt. The source made the active and inactive calls.
Columns and labels:
[1] = cytotoxicity in HEK-293T cells, dose response, cytotoxicity control for BCR NF-kB inhibitor project, luminescence, B-cell screen hits (AID 489021); assay type: functional, cell-based;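 further: HEK-293T cells carrying an NF-kB luciferase reporter; cells exposed to compound for about 14 hours before viability readout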
[2] = target: T1, Heat shock factor protein 1 (Mus musculus, UniProt P38532); assay: HSF1 potentiators in luciferase reporter cells, confirmation, cell-based, NIH3T3, luminescence, dose retest (AID 435004); assay type: functional;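 further: stress induced by proteasome inhibitor MG132 added 30 min after compound; luciferase reporter driven by HSF1 response element in NIH3T3 cells; actives raise luminescence as potentiators of the MG132 stress response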
T1 sequence (P38532 whole entry): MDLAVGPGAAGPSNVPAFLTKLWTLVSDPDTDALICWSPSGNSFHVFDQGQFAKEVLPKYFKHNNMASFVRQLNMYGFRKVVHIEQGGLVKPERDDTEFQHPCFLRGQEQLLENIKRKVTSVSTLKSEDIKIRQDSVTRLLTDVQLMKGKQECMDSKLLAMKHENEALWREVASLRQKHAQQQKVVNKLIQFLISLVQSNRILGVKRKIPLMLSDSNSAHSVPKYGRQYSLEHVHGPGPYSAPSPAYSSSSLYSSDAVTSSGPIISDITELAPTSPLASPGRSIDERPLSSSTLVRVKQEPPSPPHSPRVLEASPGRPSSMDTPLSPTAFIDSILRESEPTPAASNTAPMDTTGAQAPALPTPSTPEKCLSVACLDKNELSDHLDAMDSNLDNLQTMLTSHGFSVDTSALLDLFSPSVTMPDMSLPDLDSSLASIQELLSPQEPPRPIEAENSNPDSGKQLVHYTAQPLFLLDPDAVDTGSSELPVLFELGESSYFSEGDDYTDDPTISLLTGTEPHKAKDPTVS

[3] = THP-1 cell cytotoxicity, dose response, cytotoxicity control for Vif-APOBEC3G degradation inhibitor project, THP-1 cells (AID 1117359); assay type: functional; conditions: Human immunodeficiency virus 1, THP-1
[4] = target: Voltage-gated inwardly rectifying potassium channel KCNH2 (Homo sapiens, UniProt Q12809); conditions: Potency;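 further: confirmatory quantitative high-throughput screen measuring inhibition of hERG channel activity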
Sequence of Voltage-gated inwardly rectifying potassium channel KCNH2 (Q12809 whole entry): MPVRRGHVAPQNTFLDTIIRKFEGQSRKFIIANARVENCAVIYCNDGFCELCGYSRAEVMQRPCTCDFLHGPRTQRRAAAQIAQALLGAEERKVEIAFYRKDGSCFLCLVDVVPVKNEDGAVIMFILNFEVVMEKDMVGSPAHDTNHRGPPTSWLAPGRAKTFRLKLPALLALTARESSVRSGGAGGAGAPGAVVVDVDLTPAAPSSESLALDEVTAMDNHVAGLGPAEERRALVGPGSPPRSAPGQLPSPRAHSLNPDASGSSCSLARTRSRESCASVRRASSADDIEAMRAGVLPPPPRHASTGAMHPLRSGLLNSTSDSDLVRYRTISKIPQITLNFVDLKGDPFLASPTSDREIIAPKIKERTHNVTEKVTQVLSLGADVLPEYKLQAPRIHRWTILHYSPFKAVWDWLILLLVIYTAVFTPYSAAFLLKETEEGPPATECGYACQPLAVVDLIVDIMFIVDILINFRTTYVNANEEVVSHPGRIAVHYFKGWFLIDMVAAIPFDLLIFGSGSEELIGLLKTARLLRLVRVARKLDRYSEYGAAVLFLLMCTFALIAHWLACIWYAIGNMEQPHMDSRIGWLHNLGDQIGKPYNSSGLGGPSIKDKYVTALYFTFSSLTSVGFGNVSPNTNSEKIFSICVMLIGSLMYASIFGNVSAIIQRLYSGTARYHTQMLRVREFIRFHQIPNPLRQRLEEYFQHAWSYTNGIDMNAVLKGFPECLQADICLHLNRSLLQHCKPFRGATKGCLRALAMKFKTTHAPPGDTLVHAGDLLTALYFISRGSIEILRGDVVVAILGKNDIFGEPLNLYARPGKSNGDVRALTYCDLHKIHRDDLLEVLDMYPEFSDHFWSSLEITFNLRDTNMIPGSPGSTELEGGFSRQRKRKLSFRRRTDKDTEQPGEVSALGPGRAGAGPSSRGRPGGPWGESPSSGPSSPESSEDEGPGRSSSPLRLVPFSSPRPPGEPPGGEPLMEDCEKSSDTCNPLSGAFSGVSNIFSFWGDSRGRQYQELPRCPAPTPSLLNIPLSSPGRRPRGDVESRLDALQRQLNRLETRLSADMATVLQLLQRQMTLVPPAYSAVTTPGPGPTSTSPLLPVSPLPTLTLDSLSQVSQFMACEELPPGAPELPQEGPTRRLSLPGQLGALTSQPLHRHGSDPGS

[5] = target: Glucose-6-phosphate 1-dehydrogenase (Homo sapiens, UniProt P11413); assay: human G6PD enzyme inhibitors, dose response, selectivity assay for P. falciparum G6PD inhibitor project, biochemical, fluorescence (AID 504792); assay type: functional
[6] = Luminescence Cell-Based Dose Retest to Confirm Inhibitors of Cancer Stem Cells. [Related pubchem assays (depositor defined):AID2717, AID2721]; assay type: functional; conditions: Homo sapiens
[7] = system: HEK293; assay: inhibitors of LMP1-driven NF-kB reporter, dose response, cell-based, HEK293, luciferase, cherry-pick (AID 588343); assay type: functional; conditions: Homo sapiens
[8] = target: T1, Heat shock factor protein 1; assay: inhibition of MG132-induced HSE-luciferase signal, confirmation, cell-based, NIH3T3, luminescence, dose retest (AID 2382); assay type: functional;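 further: NIH3T3 fibroblasts with HSF1-driven luciferase reporter stressed by proteasome inhibitor MG132; luminescence from HSF1-driven luciferase expression after 8 hours of MG132 stress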
[9] = intracellular Trypanosoma cruzi inhibitors in host cells – cell-based, plate reader, cherry-pick samples, set 3, dose response (AID 651818); assay type: functional;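 further: compounds incubated with infected cells for about four days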
[10] = target: T2, Fatty acid synthase (Homo sapiens, UniProt P49327); assay: FAS thioesterase domain inhibitors, dose response, biochemical, kinetic fluorescence intensity (AID 624326); assay type: functional;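 further: rate of fluorescence rise from hydrolysis of a fluorogenic O-methyl fluorescein ester substrate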
T2 sequence (P49327 whole entry, the tested form may be a part): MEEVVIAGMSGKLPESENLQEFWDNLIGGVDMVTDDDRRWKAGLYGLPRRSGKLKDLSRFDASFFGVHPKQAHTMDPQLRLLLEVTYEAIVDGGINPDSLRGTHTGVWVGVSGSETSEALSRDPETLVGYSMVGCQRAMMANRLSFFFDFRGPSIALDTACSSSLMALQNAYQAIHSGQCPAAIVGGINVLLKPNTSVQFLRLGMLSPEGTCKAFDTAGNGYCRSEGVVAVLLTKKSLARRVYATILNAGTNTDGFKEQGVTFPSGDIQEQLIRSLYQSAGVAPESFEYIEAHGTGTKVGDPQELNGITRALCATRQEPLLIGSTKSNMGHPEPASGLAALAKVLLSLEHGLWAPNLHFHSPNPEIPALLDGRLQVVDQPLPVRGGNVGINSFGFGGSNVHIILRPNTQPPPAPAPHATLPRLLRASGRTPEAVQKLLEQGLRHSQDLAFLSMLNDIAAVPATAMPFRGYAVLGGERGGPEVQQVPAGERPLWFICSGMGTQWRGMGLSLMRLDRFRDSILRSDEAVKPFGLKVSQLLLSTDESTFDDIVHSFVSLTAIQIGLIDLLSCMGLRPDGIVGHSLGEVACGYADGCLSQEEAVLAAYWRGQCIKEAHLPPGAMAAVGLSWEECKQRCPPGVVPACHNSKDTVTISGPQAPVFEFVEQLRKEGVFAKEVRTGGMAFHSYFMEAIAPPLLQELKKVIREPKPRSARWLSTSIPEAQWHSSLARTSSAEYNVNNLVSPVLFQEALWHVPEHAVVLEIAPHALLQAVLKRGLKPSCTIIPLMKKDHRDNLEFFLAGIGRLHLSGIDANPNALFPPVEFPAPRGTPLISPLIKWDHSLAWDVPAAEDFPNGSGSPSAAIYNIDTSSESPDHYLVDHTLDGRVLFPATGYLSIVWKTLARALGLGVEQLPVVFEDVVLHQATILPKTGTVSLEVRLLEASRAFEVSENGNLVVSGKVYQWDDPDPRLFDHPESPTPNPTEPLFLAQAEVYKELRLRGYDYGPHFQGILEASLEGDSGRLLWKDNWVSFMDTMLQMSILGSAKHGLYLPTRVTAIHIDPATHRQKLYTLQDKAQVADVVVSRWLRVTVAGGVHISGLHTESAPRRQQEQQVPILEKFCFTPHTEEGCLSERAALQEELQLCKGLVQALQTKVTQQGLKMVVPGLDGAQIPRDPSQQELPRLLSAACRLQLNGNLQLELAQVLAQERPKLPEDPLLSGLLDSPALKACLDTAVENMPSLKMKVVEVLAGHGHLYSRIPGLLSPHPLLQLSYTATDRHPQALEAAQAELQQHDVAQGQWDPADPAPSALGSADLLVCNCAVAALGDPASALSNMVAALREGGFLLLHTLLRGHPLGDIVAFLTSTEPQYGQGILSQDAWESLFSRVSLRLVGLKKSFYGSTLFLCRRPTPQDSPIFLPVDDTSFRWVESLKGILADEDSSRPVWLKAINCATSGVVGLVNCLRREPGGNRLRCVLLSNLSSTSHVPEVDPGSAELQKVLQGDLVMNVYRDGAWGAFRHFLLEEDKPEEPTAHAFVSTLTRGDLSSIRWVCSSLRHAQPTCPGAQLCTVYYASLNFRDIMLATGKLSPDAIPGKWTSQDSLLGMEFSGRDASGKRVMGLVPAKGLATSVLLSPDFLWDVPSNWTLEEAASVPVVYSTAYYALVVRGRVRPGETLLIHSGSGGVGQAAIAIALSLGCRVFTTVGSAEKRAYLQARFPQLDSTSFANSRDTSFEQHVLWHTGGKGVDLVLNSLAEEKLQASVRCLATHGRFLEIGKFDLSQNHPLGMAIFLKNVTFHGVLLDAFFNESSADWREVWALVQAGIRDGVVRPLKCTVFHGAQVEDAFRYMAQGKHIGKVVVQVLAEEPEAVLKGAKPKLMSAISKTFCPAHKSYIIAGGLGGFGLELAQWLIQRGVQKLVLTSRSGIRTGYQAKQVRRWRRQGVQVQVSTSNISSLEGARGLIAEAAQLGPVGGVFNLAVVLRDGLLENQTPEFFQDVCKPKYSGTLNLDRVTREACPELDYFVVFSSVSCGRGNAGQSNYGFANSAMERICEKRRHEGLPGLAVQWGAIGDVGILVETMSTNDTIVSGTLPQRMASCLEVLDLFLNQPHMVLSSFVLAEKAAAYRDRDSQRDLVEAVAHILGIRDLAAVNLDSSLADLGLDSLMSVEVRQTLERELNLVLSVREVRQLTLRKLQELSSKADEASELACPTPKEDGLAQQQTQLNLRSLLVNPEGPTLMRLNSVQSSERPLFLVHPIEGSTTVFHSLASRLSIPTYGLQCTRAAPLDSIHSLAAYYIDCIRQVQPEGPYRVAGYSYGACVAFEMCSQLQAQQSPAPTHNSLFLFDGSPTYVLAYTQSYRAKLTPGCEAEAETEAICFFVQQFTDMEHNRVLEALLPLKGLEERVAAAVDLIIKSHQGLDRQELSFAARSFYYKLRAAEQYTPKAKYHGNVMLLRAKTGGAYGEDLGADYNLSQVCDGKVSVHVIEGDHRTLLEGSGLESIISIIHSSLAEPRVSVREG

[11] = target: Albumin (Bos taurus, UniProt P02769); assay: Counterscreen for inhibitors of T-cell receptor (TCR)-CD3 interaction: Fluorescence-based biochemical high throughput dose response assay to identify inhibitors of T-cell receptor (TCR)-CD3 interaction using a TAMRA-labeled BSA probe.; assay type: functional
[12] = target: T2, Fatty acid synthase; assay: FAS thioesterase domain inhibitors, dose response, biochemical, endpoint fluorescence intensity, uHTS hits (AID 624327); assay type: functional;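 further: fluorescence from hydrolysis of an O-methyl fluorescein acyl ester substrate by the enzyme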
[13] = M. tuberculosis H37Rv growth inhibitors, H37Rv strain (AID 1626); assay type: functional
[14] = growth suppression of PTEN-null colon cells, dose response, cell-based, HCT116 PTEN knockout (AID 1047); assay type: functional;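 further: HCT116 colon tumor cells with PTEN knocked out; cells exposed to compound for 60 hours before readout; potency for loss of cell viability measured by luminescence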
[15] = growth suppression of beta-catenin-knockout colon cells, dose response, cell-based, HCT116, human colon tumor (AID 1045); assay type: functional;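 further: HCT116 colon tumor cells with beta catenin knocked out; cells exposed to compound for 60 hours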
[16] = target: T3, Cytochrome P450 2C9 (Homo sapiens, UniProt P11712)
T3 sequence (P11712 whole entry): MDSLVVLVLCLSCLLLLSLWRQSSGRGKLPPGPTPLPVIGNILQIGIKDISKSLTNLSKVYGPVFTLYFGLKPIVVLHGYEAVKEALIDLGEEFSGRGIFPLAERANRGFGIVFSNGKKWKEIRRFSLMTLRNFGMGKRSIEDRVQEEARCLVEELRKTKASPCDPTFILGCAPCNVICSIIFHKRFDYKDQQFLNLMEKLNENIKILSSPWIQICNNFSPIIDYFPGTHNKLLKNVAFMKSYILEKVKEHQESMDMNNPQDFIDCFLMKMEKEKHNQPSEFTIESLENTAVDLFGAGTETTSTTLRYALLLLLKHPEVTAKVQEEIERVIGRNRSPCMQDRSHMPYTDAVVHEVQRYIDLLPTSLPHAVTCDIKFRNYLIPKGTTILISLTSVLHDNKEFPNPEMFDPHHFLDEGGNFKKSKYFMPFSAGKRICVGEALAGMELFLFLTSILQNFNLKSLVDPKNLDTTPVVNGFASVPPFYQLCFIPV

[17] = target: Cytochrome P450 3A4 (Homo sapiens, UniProt P08684);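 further: CYP3A4 tested as one member of a cytochrome P450 panel screen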
Sequence of Cytochrome P450 3A4 (P08684 whole entry): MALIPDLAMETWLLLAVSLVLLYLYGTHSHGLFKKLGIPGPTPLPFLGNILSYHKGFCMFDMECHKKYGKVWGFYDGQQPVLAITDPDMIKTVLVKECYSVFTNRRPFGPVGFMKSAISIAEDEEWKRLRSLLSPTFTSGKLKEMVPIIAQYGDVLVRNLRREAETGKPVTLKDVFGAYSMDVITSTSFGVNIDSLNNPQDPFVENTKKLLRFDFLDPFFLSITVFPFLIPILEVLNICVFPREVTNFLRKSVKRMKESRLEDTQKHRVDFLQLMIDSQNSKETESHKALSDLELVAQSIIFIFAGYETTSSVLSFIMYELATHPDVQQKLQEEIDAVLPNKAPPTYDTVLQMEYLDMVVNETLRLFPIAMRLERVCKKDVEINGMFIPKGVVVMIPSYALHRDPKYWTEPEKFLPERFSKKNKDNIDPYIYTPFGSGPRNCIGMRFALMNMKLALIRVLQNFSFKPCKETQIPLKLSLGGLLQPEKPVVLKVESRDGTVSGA

[18] = target: T3, Cytochrome P450 2C9; remark: listed apart in the source
[19] = inhibitors of clade B AD8 Env fusion, dose response, cell-based, cherry-pick (AID 652062); assay type: functional;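 further: luciferase signal from cell-cell fusion driven by HIV-1 clade B AD8 Env; potency is for inhibitors of fusion seen as a drop in luminescence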
[20] = ZM109 Env clade C HIV-1 fusion inhibitors, dose response, HeLa effector, CEM target cells, luciferase, cherry-pick (AID 652058); assay type: functional, cell-based

Cc1cc(NC(=O)CCCN2C(=O)/C(=C/c3ccccc3Cl)SC2=S)no1
IC50 [1]: > 80 µM (inactive)

C=CCN1CCc2cccc3c2[C@H]1Cc1ccc(O)c(O)c1-3
EC50 [2]: > 260 µM (inactive) | CC50 [3]: > 40 µM (active) | AC50 [4]: 11.2 µM (inconclusive) | IC50 [5]: > 80 µM (inactive)

OCCN(CCO)CC(O)COc1ccc(C23CC4CC(CC(C4)C2)C3)cc1 (stereo not given)
AC50 [6]: 1.05 µM (active) | AC50 [7]: 7.62 µM (active) | EC50 [8]: 3.11 µM (active)

NCCc1ccc(S(=O)(=O)F)cc1 [4-AMINOETHYLBENZENESULFONYL FLUORIDE HYDROCHLORIDE]
AC50 [4]: 0.251 µM (inconclusive)

C[C@H]1CN([C@@H](C)CO)C(=O)Cc2cc(NC(=O)Nc3cccc4ccccc34)ccc2O[C@H]1CN(C)Cc1ccc(C(F)(F)F)cc1
AC50 [9]: 5.49 µM (active)

O=C(NC(C(=O)N/N=C/c1cc([N+](=O)[O-])ccc1O)c1nnc(O)c2ccccc12)c1ccccc1 (stereo not given)
IC50 [10]: 2.55 µM (active) | IC50 [11]: > 94.1 µM (inactive) | IC50 [12]: 2.76 µM (active)

N#Cc1ccccc1COc1ccc(/C=C/C(=O)O)cc1
IC50 [1]: > 80 µM (inactive)

CCOc1ccc(N2C(=O)c3ccccc3C2=O)cc1
IC50 [13]: > 100 µM (active)

C[C@@H]1CCCCO[C@H](CN(C)C(=O)Nc2ccc(C(F)(F)F)cc2)[C@@H](C)CN([C@H](C)CO)C(=O)c2cc(NC(=O)Nc3ccccc3)ccc2O1
AC50 [9]: 2.02 µM (active)

O=NN(CCO)CCO [N-NITROSODOETHANOLAMINE]
AC50 [4]: 3.16 µM (inconclusive)

Oc1ccc(C=NNC(=S)Nc2ccccc2)nc1
AC50 [7]: 14.6 µM (active)

C[C@@H]1CN([C@H](C)CO)C(=O)Cc2cc(NC(=O)Nc3ccc(C(F)(F)F)cc3)ccc2O[C@@H]1CN(C)Cc1ccc(C(=O)Nc2ccccc2N)cc1
AC50 [9]: 2.41 µM (active)

COc1cc(/C=C(\C#N)C(=O)NC2CCCCC2C)ccc1OS(=O)(=O)c1ccc(C)cc1 (stereo not given)
EC50 [2]: 2.17 µM (active) | AC50 [6]: 5.32 µM (active) | EC50 [14]: 10.7 µM (active) | EC50 [15]: 9.24 µM (active) | IC50 [13]: > 100 µM (active)

COc1[nH]c2ccc(F)cc2c1C(=O)OCC1CCN(CCNS(C)(=O)=O)CC1.NS(=O)(=O)O
AC50 [4]: 35.5 µM (inconclusive) | AC50 [16]: inconclusive | AC50 [17]: 12.6 µM (inconclusive) and 31.6 µM (inconclusive) | AC50 [18]: 39.8 µM (inconclusive)

O=C(C[C@H]1C[C@H]2c3cc(NC(=O)NC4CCCC4)ccc3O[C@H]2[C@@H](CO)O1)NC1CCCCC1
AC50 [19]: 1.17 µM (active) | AC50 [20]: 24.5 µM (active)

Reference: ChEMBL document CHEMBL1201862, “PubChem BioAssay data set” (2004)
